Test results reported in patent US12144785B2, “Composition of vitamin K and vitamin D for treating or preventing cardiovascular disease” (NATTOPHARMA AS, priority 2002, dated 2024).

Tested on: thoracic aorta
Experiment: Aortic calcification in warfarin-treated rats: total calcium in thoracic aorta extract by atomic absorptiometry
Format: in vivo
Conditions: for Pre-formed calcium crystals / aortic calcification on high vitamin K diet: "high K": 6 weeks warfarin, then 6 weeks diet with 100 μg/g vitamin K, FIG. 6, means of K1 and K2 groups; for Difference between the outcomes for K1 and K2: high vitamin K diet after 6 weeks warfarin
Procedure: We performed and experiment using 48 rats. Each point in the various curves shown in FIGS. 3-6 is the mean of six rats, which were sacrificed. The thoracic aorta was dissected, homogenized, and precipitated calcium salts were dissolved in formic acid. The total calcium concentration in the extract was assessed by atomic absorptiometry, and is expressed as microgram calcium per gram of tissue.
Six of them were killed at baseline, six after 6 weeks, and the last six after 12 weeks. Apart from the cellular calcium, no accretion of calcium was observed during the test period. […] The protocol used involves the oral administration of a mixture of warfarin (3 mg/g of food) and vitamin K1 (1.5 mg/g of food) and is explained extensively in: H. M. H. Spronk et al, Tissue-specific utilization of menaquinone-4 results in the prevention of arterial calcification in warfarin-treated rats, Journal of Vascular Research 2003; 40:531-537. This treatment is designated as “low K”. Six rats were killed after 6 weeks of treatment, and another six after 12 weeks of treatment.
The other rats were first treated for six weeks with warfarin. One group of animals was subsequently fed the standard diet containing 5 μg vitamin K per g of food (indicated as “norm K”). […] Apparently, the presence of calcium precipitates is a sufficient trigger to continue further calcification (see FIG. 5) when using a normal diet.
Finally, we used two groups of six rats who had received the first 6-week treatment with warfarin, and a high vitamin K diet in the second 6-week period. One group received a diet containing […] of vitamin K1, the other one a diet containing 100 μg/g of vitamin K2 (menaquinone-4). Since there was no difference between the outcomes for K1 and K2, we present the means of both groups in FIG. 6 (designated as “high K”). […] This may be related to the relatively high dose used, and different efficacies may still be found from dose-response experiments. […] It may be expected that after prolonged treatment all calcified precipitates will dissolve by high vitamin K intake. The dose used for dissolving calcified precipitates in the aorta was 20 times the normal dose used (compared to the recommended allowance in humans). If extrapolated to humans the effective intake of vitamin K should thus be increased from 100 μg/day to 2 mg/day. Experiments in which lower doses are used will be initiated. However, it is likely that a similar effect will be observed at lower doses, even as low as 1-2 times the normal daily intake. This will depend upon factors such as vitamin K absorption since synthetic supplemented vitamin K is typically absorbed better (e.g. 10-20 fold) than nutritional vitamin K (e.g. which may be bound to chloroplasts in the food matrix).

CC1=C(C/C=C(\C)CCC[C@H](C)CCC[C@H](C)CCCC(C)C)C(=O)c2ccccc2C1=O [vitamin K1, phylloquinone]
Pre-formed calcium crystals / aortic calcification on high vitamin K diet: dissolved to a great deal
Difference between the outcomes for K1 and K2: no difference

CC(=O)CC(c1ccccc1)c1c(O)c2ccccc2oc1=O (stereo not drawn) [warfarin]
Calcium in the arterial wall ("low K": warfarin 3 mg/g food + vitamin K1 1.5 mg/g food, oral, 6 and 12 weeks, FIG. 4): constant increase

CC(C)=CCC/C(C)=C/CC/C(C)=C/CC/C(C)=C/CC1=C(C)C(=O)c2ccccc2C1=O [vitamin K2, menaquinone-4]
Pre-formed calcium crystals / aortic calcification on high vitamin K diet: dissolved to a great deal
Difference between the outcomes for K1 and K2: no difference

vitamin K
Aortic calcification after change to the standard diet ("norm K": 6 weeks warfarin, then standard diet with 5 μg vitamin K per g of food, FIG. 5): did not stop
